# ChEMBL document CHEMBL3588816, “Molecular modeling of the human P2Y14 receptor: A template for structure-based design of selective agonist ligands” (Bioorg Med Chem, 2015)
# pEC50: −log10 of the molar value. The source made the active and inactive calls. The rule behind the calls is not given here.
# Target: T1, P2Y purinoceptor 14 (Homo sapiens) (UniProt Q15391)
# T1 sequence (whole entry): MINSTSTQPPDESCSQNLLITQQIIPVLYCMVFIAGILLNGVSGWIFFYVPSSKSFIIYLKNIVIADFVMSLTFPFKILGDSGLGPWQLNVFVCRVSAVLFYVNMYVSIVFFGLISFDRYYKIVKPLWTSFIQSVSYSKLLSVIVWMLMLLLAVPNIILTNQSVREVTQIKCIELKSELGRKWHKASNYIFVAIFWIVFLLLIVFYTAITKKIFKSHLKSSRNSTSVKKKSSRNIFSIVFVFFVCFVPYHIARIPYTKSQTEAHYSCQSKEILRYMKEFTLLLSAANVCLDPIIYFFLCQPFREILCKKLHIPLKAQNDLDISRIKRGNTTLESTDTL
# Test: Agonist activity at recombinant human P2Y14 receptor expressed in African green monkey COS7 cells co-transfected with Galphaqi assessed as stimulation of phospholipase Cbeta at 10 uM
# Assay type: cell-based
# Details: COS-7
row,SMILES,Activity
1,Nc1cn([C@@H]2O[C@H](COP(=O)(O)OP(=O)(O)O[C@H]3O[C@H](CO)[C@@H](O)[C@H](O)[C@H]3O)[C@@H](O)[C@H]2O)c(=O)[nH]c1=O,inactive
2,O=c1[nH]c(=O)n([C@@H]2O[C@H](COP(=O)(O)OP(=O)(O)O[C@H]3O[C@H](CO)[C@@H](O)[C@H](O)[C@H]3O)[C@@H](O)[C@H]2O)cc1I,inactive
3,O=c1ccn([C@]23C[C@H]2[C@H](COP(=O)(O)OP(=O)(O)O[C@H]2O[C@H](CO)[C@@H](O)[C@H](O)[C@H]2O)[C@@H](O)[C@H]3O)c(=O)[nH]1,inactive
4,N[C@@H]1[C@H](O)[C@@H](COP(=O)(O)OP(=O)(O)O[C@H]2O[C@H](CO)[C@@H](O)[C@H](O)[C@H]2O)O[C@H]1n1ccc(=O)[nH]c1=O,inactive
5,[N-]=[N+]=Nc1cn([C@@H]2O[C@H](COP(=O)(O)OP(=O)(O)O[C@H]3O[C@H](CO)[C@@H](O)[C@H](O)[C@H]3O)[C@@H](O)[C@H]2O)c(=O)[nH]c1=O,inactive
6,O=c1ccn([C@H]2[C@H](O)[C@H](O)[C@]3(COP(=O)(O)OP(=O)(O)O[C@H]4O[C@H](CO)[C@@H](O)[C@H](O)[C@H]4O)C[C@H]23)c(=O)[nH]1,inactive
7,[N-]=[N+]=N[C@@H]1[C@H](O)[C@@H](COP(=O)(O)OP(=O)(O)O[C@H]2O[C@H](CO)[C@@H](O)[C@H](O)[C@H]2O)O[C@H]1n1ccc(=O)[nH]c1=O,inactive

# Target: T2, P2Y purinoceptor 14 (Homo sapiens, UniProt Q15391)
# T2 sequence (Q15391 whole entry): T1 sequence (whole entry)
# Test: Agonist activity at recombinant human P2Y14 receptor expressed in African green monkey COS7 cells co-transfected with Galphaqi assessed as stimulation of phospholipase Cbeta
# Assay type: cell-based, COS-7
# Details: not given
row,SMILES,pEC50
1,O=c1ccn([C@@H]2O[C@H](COP(=O)(O)OP(=O)(O)O[C@H]3O[C@H](CO)[C@@H](O)[C@H](O)[C@H]3O)[C@@H](O)[C@H]2O)c(=S)[nH]1,7.96
